Source: US20240382491A1, “METHODS FOR TREATING NEUROGENERATIVE DISEASES” (PTC THERAPEUTICS, INC., priority 2021, published 2024)

Experiments:
[1] = system: IKBKAP gene; details: as reported in International Publication No. WO2016/115434; cited from earlier work
[2] = system: MAPT 3R mRNA (Microtubule associated protein Tau); experiment: RT-qPCR Assay to Quantify MAPT 3R mRNA in Cells; type: cell-based; details: MAPT 3R mRNA by RT-qPCR, GAPDH assay in same reaction; cells treated 24 h; 7-point concentration curve

## Clc1nc(NCc2ccncc2)c2cc[nH]c2n1 [Comparison Compound 1, 2-chloro-N-(pyridin-4-ylmethyl)-7H-pyrrolo[2,3-d]pyrimidin-4-amine]
[1]
  potency in correcting mRNA splicing and promoting exon 20 inclusion in the IKBKAP gene: very potent

## C[C@H](N)Cc1[nH]c2nc(Cl)nc(NCc3ccco3)c2c1F [Cpd 10, 6-[(2S)-2-aminopropyl]-2-chloro-5-fluoro-N-[(furan-2-yl)methyl]-7H-pyrrolo[2,3-d]pyrimidin-4-amine]
[2]
  EC (2-fold increase): 0.05 to 0.5 µM

## CNCCc1[nH]c2nc(Cl)nc(NCc3ccco3)c2c1Cl [Cpd 17, 2,5-dichloro-N-[(furan-2-yl)methyl]-6-[2-(methylamino)ethyl]-7H-pyrrolo[2,3-d]pyrimidin-4-amine]
[2]
  EC (2-fold increase): 1 to 1.5 µM

## C[C@H](N)Cc1c(Cl)c2c(NCc3ccco3)nc(Cl)nc2n1C [Cpd 23, 6-[(2S)-2-aminopropyl]-2,5-dichloro-N-[(furan-2-yl)methyl]-7-methyl-7H-pyrrolo[2,3-d]pyrimidin-4-amine]
[2]
  EC (2-fold increase): 0.05 to 0.5 µM

## C[C@H](N)Cc1c(F)c2c(NCc3ccco3)nc(Cl)nc2n1C [Cpd 24, 6-[(2S)-2-aminopropyl]-2-chloro-5-fluoro-N-[(furan-2-yl)methyl]-7-methyl-7H-pyrrolo[2,3-d]pyrimidin-4-amine]
[2]
  EC (2-fold increase): 0.05 to 0.5 µM

## Cc1c(C[C@H](C)N)n(C)c2nc(Cl)nc(NCc3ccco3)c12 [Cpd 35, 6-[(2S)-2-aminopropyl]-2-chloro-N-[(furan-2-yl)methyl]-5,7-dimethyl-7H-pyrrolo[2,3-d]pyrimidin-4-amine]
[2]
  EC (2-fold increase): 0.05 to 0.5 µM

## C[C@H](N)Cc1c(F)c2c(NCc3nccs3)nc(Cl)nc2n1C [Cpd 38, 6-[(2S)-2-aminopropyl]-2-chloro-5-fluoro-7-methyl-N-[(1,3-thiazol-2-yl)methyl]-7H-pyrrolo[2,3-d]pyrimidin-4-amine]
[2]
  EC (2-fold increase): 0.5 to 1 µM

## C[C@H](N)Cc1c(F)c2c(NCc3ccncc3F)nc(Cl)nc2n1C [Cpd 41, 6-[(2S)-2-aminopropyl]-2-chloro-5-fluoro-N-[(3-fluoropyridin-4-yl)methyl]-7-methyl-7H-pyrrolo[2,3-d]pyrimidin-4-amine]
[2]
  EC (2-fold increase): 0.5 to 1 µM

## C[C@H](N)Cc1c(F)c2c(NCc3ccncc3)nc(Cl)nc2n1C [Cpd 43, 6-[(2S)-2-aminopropyl]-2-chloro-5-fluoro-7-methyl-N-[(pyridin-4-yl)methyl]-7H-pyrrolo[2,3-d]pyrimidin-4-amine]
[2]
  EC (2-fold increase): 0.5 to 1 µM

## C[C@H](N)Cc1c(F)c2c(NCc3cccs3)nc(Cl)nc2n1C [Cpd 49, 6-[(2S)-2-aminopropyl]-2-chloro-5-fluoro-7-methyl-N-[(thiophen-2-yl)methyl]-7H-pyrrolo[2,3-d]pyrimidin-4-amine]
[2]
  EC (2-fold increase): 0.05 to 0.5 µM
